Laboratory results as given in patent US6328989A, “Use of bicozamycin for the manufacture of a medicament for treating infections with enterohemorrhagic e. coli” (Fujisawa Pharmaceutical Co., Ltd., priority 1997, dated 2001).
≈ marks a conversion by molar mass, not a printed value. Where “and” joins values, the source holds several entries; their conditions need not be identical. Equal values may be shown once. Read-outs that look alike come from different tables or passages of the source.

Columns and labels:
VT2 [1] = format: cell-based, E. coli O-157:H7; settings: 3h; for VT2 released: control 0h <2, control 3h 8; for VT2 intracellular: control 0h <2, control 3h 16; for VT2 released, ratio to control at 0h: control 3h ratio 8; for VT2 intracellular, ratio to control at 0h: control 3h ratio 16
Verotoxins (VT1 and VT2) = format: cell-based, E. coli O-157:H7; settings: concentration greater than MIC; compared with untreated E. coli
VT1 [2] = format: cell-based, E. coli O-157:H7; settings: 3h; for VT1 released: control 0h <2, control 3h 2; for VT1 released, ratio to control at 0h: control 3h ratio 2; for VT1 intracellular, ratio to control at 0h: control 3h ratio 32
E. coli O-157:H7 = assay: Minimum inhibitory concentration (MIC) against E. coli O-157:H7 strains by agar dilution method; format: cell-based; settings: for MIC50 / MIC90: Escherichia coli, 18 h, 20 strains
E. coli O-157 [3] = assay: Viable cells in the cecum of mice infected with E. coli O-157; format: in vivo, E. coli FP1962 in DBA/2 mice; settings: for Number of cells in cecum, individual mouse / Number of cells in cecum, mean: day 6; for Number of cells in cecum, individual mouse: DBA/2 mice; for Number of cells in cecum, mean: control mean 3.4 × 10^7
VT1 [4] = assay: Amount of VT1 in cecum of mice infected with E. coli O-157 (VTEC-RPLA); format: in vivo, E. coli FP1962 in DBA/2 mice; settings: day 6
verotoxins = tested on: verotoxins; design: species or system E. coli FP1962 in DBA/2 mice; settings: mouse, in vivo, po
VT2 [5] = assay: Amount of VT2 in cecum of mice infected with E. coli O-157 (VTEC-RPLA); format: in vivo, E. coli FP1962 in DBA/2 mice; settings: day 6
E. coli O-157 [6] = assay: Death of mice infected with E. coli O-157; format: in vivo, E. coli FP1962 in DBA/2 mice; settings: 10 mg/kg/dose orally twice a day for 4 days
[7] = 32 mg/kg/dose orally twice a day for 4 days
[8] = 10 mg/kg/dose orally twice a day for 4 days

Compound | VT2 released (VT2 [1]; 10 μg/ml) | VT2 intracellular (VT2 [1]; 10 μg/ml) | VT2 released, ratio to control at 0h (VT2 [1]; 10 μg/ml) | VT2 intracellular, ratio to control at 0h (VT2 [1]; 10 μg/ml) | production and release of verotoxins (Verotoxins (VT1 and VT2)) | VT1 released (VT1 [2]; 10 μg/ml) | VT1 released, ratio to control at 0h (VT1 [2]; 10 μg/ml) | VT1 intracellular, ratio to control at 0h (VT1 [2]; 10 μg/ml) | MIC50 (E. coli O-157:H7; aerobic) | MIC90 (E. coli O-157:H7; aerobic) | MIC50 (E. coli O-157:H7; anaerobic) | MIC90 (E. coli O-157:H7; anaerobic) | Number of cells in cecum, individual mouse (E. coli O-157 [3]; [7]) | Number of cells in cecum, mean (E. coli O-157 [3]; [7]) | Amount of VT1 in cecum, individual mouse (VT1 [4]; [7]) | Amount of VT2 in cecum, individual mouse (VT2 [5]; [7]) | other results
CC1(C)S[C@@H]2[C@H](NC(=O)[C@H](N)c3ccc(O)cc3)C(=O)N2[C@H]1C(=O)O [AMX, Amoxicillin] | 8 maximum dilution times | 4 maximum dilution times | 8 | 4 | both production and release of verotoxins increased much more than those with an untreated E. coli | ≥ 256 maximum dilution times | ≥ 256 | 32 | 3.13 µg/mL (≈ 8.57 µM) | 6.25 µg/mL (≈ 17.1 µM) | 1.56 µg/mL (≈ 4.27 µM) | 3.13 µg/mL (≈ 8.57 µM) | – | – | – | – | VT1 intracellular (VT1 [2]; 10 μg/ml, control 0h 2, control 3h 64): 64 maximum dilution times; MIC distribution: number of strains with MIC 1.56 μg/ml (E. coli O-157:H7): 14 strains; MIC distribution: number of strains with MIC 6.25 μg/ml (E. coli O-157:H7): 2 strains; MIC distribution: number of strains with MIC >100 μg/ml (E. coli O-157:H7; aerobic, 20 strains tested): 1 strains; MIC distribution: number of strains with MIC >100 μg/ml (E. coli O-157:H7; anaerobic, 20 strains tested): 1 strains
C=C1CCO[C@]2([C@@H](O)[C@@](C)(O)CO)NC(=O)[C@@]1(O)NC2=O [BCM, Bicozamycin] | 2 maximum dilution times | 4 maximum dilution times | 2 | 4 | increases in production and release of verotoxins were dramatically suppressed | 8 maximum dilution times | 8 | 16 | 25 µg/mL (≈ 82.7 µM) | 25 µg/mL (≈ 82.7 µM) | 12.5 µg/mL (≈ 41.4 µM) | 25 µg/mL (≈ 82.7 µM) | 4.5 × 10^3 cfu/site and 1.0 × 10^2 cfu/site and 8.5 × 10^3 cfu/site and 3.5 × 10^3 cfu/site and 1.0 × 10^5 cfu/site | 2.2 × 10^3 cfu/site | < 2 titer | < 2 titer and 2 titer | VT2 released (VT2 [1]; 25 μg/ml): < 2 maximum dilution times; VT2 intracellular (VT2 [1]; 25 μg/ml): < 2 maximum dilution times; VT2 released, ratio to control at 0h (VT2 [1]; 25 μg/ml): 1; VT2 intracellular, ratio to control at 0h (VT2 [1]; 25 μg/ml): 1; VT2 released (VT2 [1]; 100 μg/ml): < 2 maximum dilution times; VT2 intracellular (VT2 [1]; 100 μg/ml): < 2 maximum dilution times; VT2 released, ratio to control at 0h (VT2 [1]; 100 μg/ml): 1; VT2 intracellular, ratio to control at 0h (VT2 [1]; 100 μg/ml): 1; antimicrobial activity against VTEC (E. coli O-157 [3]; infected mice, 32 mg/kg/dose orally): showed an antimicrobial activity against VTEC; VT1 released (VT1 [2]; 25 μg/ml): 8 maximum dilution times; VT1 released, ratio to control at 0h (VT1 [2]; 25 μg/ml): 8; VT1 intracellular, ratio to control at 0h (VT1 [2]; 25 μg/ml): 1; VT1 released (VT1 [2]; 100 μg/ml): 8 maximum dilution times; VT1 released, ratio to control at 0h (VT1 [2]; 100 μg/ml): 8; VT1 intracellular, ratio to control at 0h (VT1 [2]; 100 μg/ml): 1; production and release of verotoxins (verotoxins): suppressed the production and release of verotoxins; MIC distribution: number of strains with MIC 25 μg/ml (E. coli O-157:H7; aerobic, 20 strains tested): 20 strains; MIC distribution: number of strains with MIC 12.5 μg/ml (E. coli O-157:H7; anaerobic, 20 strains tested, MIC 12.5 μg/ml): 15 strains; MIC distribution: number of strains with MIC 25 μg/ml (E. coli O-157:H7; anaerobic, 20 strains tested): 5 strains
CC[C@H]1OC(=O)[C@H](C)[C@@H](O[C@H]2C[C@@](C)(OC)[C@@H](O)[C@H](C)O2)[C@H](C)[C@@H](O[C@@H]2O[C@H](C)C[C@H](N(C)C)[C@H]2O)[C@](C)(OC)C[C@@H](C)C(=O)[C@H](C)[C@@H](O)[C@]1(C)O [CAM, clathromycin] | – | – | – | – | – | – | – | – | – | – | – | – | 2.4 × 10^7 cfu/site and 7.9 × 10^7 cfu/site and 1.0 × 10^8 cfu/site and 1.3 × 10^8 cfu/site and 7.0 × 10^6 cfu/site and 4.1 × 10^8 cfu/site | 6.5 × 10^7 cfu/site | 2 titer and 4 titer | 2 titer and 4 titer and < 2 titer and 8 titer | –
C[C@@H]1O[C@@H]1P(=O)(O)O [FOM, fosfomycin] | – | – | – | – | – | – | – | – | – | – | – | – | 7.1 × 10^5 cfu/site and 3.0 × 10^4 cfu/site and 1.2 × 10^8 cfu/site and 4.6 × 10^7 cfu/site and 9.8 × 10^6 cfu/site and 4.9 × 10^7 cfu/site | 6.2 × 10^6 cfu/site | < 2 titer | < 2 titer and 32 titer and 4 titer and 16 titer | –
CCn1cc(C(=O)O)c(=O)c2cc(F)c(N3CCNCC3)cc21 [NFLX, norfloxacin] | – | – | – | – | – | – | – | – | – | – | – | – | – | – | – | – | Number of cells in cecum, individual mouse (E. coli O-157 [3]; [8]): 6.9 × 10^5 cfu/site; Number of cells in cecum, mean (E. coli O-157 [3]; [8]): 6.9 × 10^5 cfu/site; death, individual mouse (E. coli O-157 [6]): died; tested mice that died due to increased verotoxins (E. coli O-157 [6]): Five of 6; Amount of VT1 in cecum, individual mouse (VT1 [4]; [8]): 2 titer; Amount of VT2 in cecum, individual mouse (VT2 [5]; [8]): 16 titer
